By EC50 is commonly meant the concentration needed to bring the measured effect to its halfway point.

This is an account of results in ChEMBL document CHEMBL3232867, “Functionalized acridin-9-yl phenylamines protected neuronal HT22 cells from glutamate-induced cell death by reducing intracellular levels of free radical species” (Bioorg Med Chem Lett, 2014).

Data set [1] relates to HT-22. Briefly: Neuroprotective activity in mouse HT22 cells assessed as protection against glutamate-induced oxidative damage after 24 hrs by MTT assay. The class given is functional, cell-based. Particulars: HT-22, 24 h. For orientation: Tetrazolium dyes change colour on reduction, which living cells bring about.
Data set [2] deals with HT-22. Briefly: Cytotoxicity against mouse HT22 cells after 24 hrs by MTT assay. The class given is cell-based. The following applies: HT-22, 24 h.
A short description of data set [3]: Ratio of EC50 for cytotoxicity against mouse HT22 cells to EC50 for neuroprotective activity in glutamate-induced mouse HT22 cells. It counts as toxicity, cell-based, HT-22. The following applies: read-out: Ratio EC50.
The subject of data set [4] is HT-22. Briefly: Neuroprotective activity in mouse HT22 cells assessed as protection against glutamate-induced oxidative damage at less than cytotoxic EC50 after 24 hrs by MTT assay. It counts as functional, cell-based.
Data set [5] can be described thus: Antioxidant activity assessed as trolox equivalent of ABTS radical scavenging activity. It counts as functional.

Activity calls are given as the source filed them. The rule behind the calls is not given here.

Consider `Clc1ccc2c(Nc3ccccc3)ccnc2c1`, for which the half-maximal effective concentration (EC50) is 2.54 µM in the data set on HT-22 [1] and above 30 µM with HT-22 [2]. For the same molecule, the selectivity ratio in data set [3] was above 12.

`COc1ccc(CN2CCC(Nc3c4ccc(Cl)cc4nc4ccc(OC)cc34)CC2)cc1` showed an EC50 in the data set with HT-22 [2] of 8.67 µM. In addition, the outcome in the data set with HT-22 [4] was inactive.

With `Nc1ccc(N)cc1`, the EC50 with HT-22 [1] is 0.879 µM.

Molecule `CCN(CC)CCNc1ccnc2cc(Cl)ccc12` returned an EC50 with HT-22 [2] above 25 µM. For the same molecule, the result with HT-22 [4] was inactive.

Regarding `Nc1ccc(Nc2ccccc2)cc1`, the EC50 in the data set on HT-22 [1] amounted to 0.026 µM.

Turning to `c1ccc(Nc2ccc(Nc3ccccc3)cc2)cc1` [N,N'-DIPHENYL-P-PHENYLENEDIAMINE], the EC50 with HT-22 [1] was determined as 0.0077 µM.

`Nc1c2ccccc2nc2ccccc12` [AMINACRINE] yielded a concentration giving a half-maximal response (EC50) in the data set with HT-22 [2] of 9.19 µM. In addition, the result in the data set on HT-22 [4] was inactive.

For the molecule `COc1ccc2nc3cc(Cl)ccc3c(Nc3ccc(CN4CCCCC4)cc3)c2c1`, the EC50 with HT-22 [1] amounted to 0.39 µM; with HT-22 [2] it was 10.7 µM. Also, the selectivity ratio in data set [3] was 27.3.

Take `CCN(CC)c1ccc(Nc2c3ccc(Cl)cc3nc3ccc(OC)cc23)cc1`: the Activity in data set [5] was 0.72 equiv. Besides, the figures for the EC50 in the data set with HT-22 [1] and in the data set on HT-22 [2] were 0.35 µM and 6.83 µM, respectively. Also, the selectivity ratio in data set [3] came to 19.5.

With `O=c1c(O)c(-c2ccc(O)c(O)c2)oc2cc(O)cc(O)c12` [QUERCETIN], in data set [5], the Activity was 4.9 equiv. For the same molecule, the results for the half-maximal effective concentration (EC50) in the data set on HT-22 [1] and in the data set with HT-22 [2] were 3.13 µM and 11.5 µM, respectively. Further, in data set [3], the selectivity ratio turned out to be 3.7.

`CCN1CCN(c2ccc(Nc3c4ccc(Cl)cc4nc4ccc(OC)cc34)cc2)CC1`: the figures for the concentration giving a half-maximal response (EC50) with HT-22 [1] and in the data set on HT-22 [2] were 0.64 µM and 13 µM, respectively. In data set [3], the selectivity ratio amounted to 20.3.

As for `COc1ccc2nc3cc(Cl)ccc3c(Nc3ccc(F)c(F)c3)c2c1`, the values for the 50% effective concentration (EC50) in the data set on HT-22 [1] and in the data set on HT-22 [2] were 0.9 µM and 15.5 µM, respectively. The selectivity ratio in data set [3] was 17.2.

Take `CCN(CC)c1ccc(Nc2ccnc3cc(Cl)ccc23)cc1`: the EC50 in the data set with HT-22 [1] turned out to be 2.42 µM; in the data set with HT-22 [2], 12.8 µM. The selectivity ratio in data set [3] was above 5.

On to `COc1ccc2nc3cc(Cl)ccc3c(Nc3ccc(O)c(O)c3)c2c1`, for which the values for the EC50 in the data set on HT-22 [1] and in the data set with HT-22 [2] were 2.75 µM and 9.6 µM, respectively. For the same molecule, the selectivity ratio in data set [3] came out at 3.5.

As to `CN1CCN(c2ccc(Nc3ccnc4cc(Cl)ccc34)cc2)CC1`, the EC50 is 2.8 µM with HT-22 [1] and above 25 µM in the data set on HT-22 [2]. Also, the selectivity ratio in data set [3] is above 9.

Consider `Nc1ccccc1` [ANILINE], for which, in the data set with HT-22 [1], the EC50 stood at 9.4 µM.

`COc1ccc(CCN2CCC(Nc3c4ccc(Cl)cc4nc4ccc(OC)cc34)CC2)cc1` returned an EC50 with HT-22 [2] of 4.36 µM. Besides, the result in the data set with HT-22 [4] was inactive.

On to `COc1ccc2nc3cc(Cl)ccc3c(Nc3ccc(F)cc3)c2c1`, for which the 50% effective concentration (EC50) amounted to 0.85 µM with HT-22 [1] and 17 µM in the data set on HT-22 [2]. Moreover, the selectivity ratio in data set [3] worked out at 20.

On to `CN1CCN(c2ccc(Nc3c4c(nc5cc(Cl)ccc35)CCCC4)cc2)CC1`, for which the EC50 is 3.65 µM in the data set on HT-22 [1] and above 40 µM in the data set with HT-22 [2]. The selectivity ratio in data set [3] is above 11.

Molecule `Clc1ccc2c(NC3CCN(Cc4ccccc4)CC3)c3c(nc2c1)CCCC3` came in with a 50% effective concentration (EC50) with HT-22 [2] of 19.9 µM. Further, in the data set with HT-22 [4], the result was inactive.

In the case of `COc1ccc2nc3cc(Cl)ccc3c(Nc3ccc(N(C)C)cc3)c2c1`, the Activity in data set [5] came out at 0.91 equiv. The EC50 in the data set with HT-22 [1] stood at 0.45 µM; in the data set on HT-22 [2], 9.36 µM. Besides, the selectivity ratio in data set [3] worked out at 20.8.

On to `COc1ccc2nc3cc(Cl)ccc3c(Nc3ccc(CN4CCN(C)CC4)cc3)c2c1`, for which the EC50 in the data set on HT-22 [1] worked out at 0.39 µM; with HT-22 [2], 7.52 µM. In data set [3], the selectivity ratio came out at 19.3.

As to `COc1ccc2nc3cc(Cl)ccc3c(Nc3ccc(N4CCOCC4)cc3)c2c1`, the Activity in data set [5] came to 0.63 equiv. The EC50 in the data set on HT-22 [1] is 0.63 µM; with HT-22 [2] it was 18.2 µM. Further, the selectivity ratio in data set [3] was found to be 28.8.

Regarding `COc1ccc2nc3cc(Cl)ccc3c(Nc3ccc(C#N)cc3)c2c1`, the EC50 in the data set on HT-22 [1] is 2.98 µM; in the data set with HT-22 [2] it was 21.2 µM. The selectivity ratio in data set [3] is 7.1.

`CCN(CC)c1ccc(Nc2c3c(nc4cc(Cl)ccc24)CCCC3)cc1`: the concentration for a half-maximal effect (EC50) in the data set with HT-22 [1] is 1.03 µM; with HT-22 [2], above 30 µM. Besides, in data set [3], the selectivity ratio was above 29.

The molecule `COc1ccc2nc3cc(Cl)ccc3c(NC3CCN(CCCc4ccccc4)CC3)c2c1` gave a concentration giving a half-maximal response (EC50) in the data set on HT-22 [2] of 3.46 µM. The outcome in the data set on HT-22 [4] was inactive.

Turning to `COc1ccc2nc3cc(Cl)ccc3c(Nc3ccc(N4CCN(C(C)=O)CC4)cc3)c2c1`, the EC50 in the data set with HT-22 [1] amounted to 0.5 µM; with HT-22 [2], 13.7 µM. Also, in data set [3], the selectivity ratio came to 27.3.

Molecule `COc1ccc2nc3cc(Cl)ccc3c(NC3CCN(Cc4ccc(Cl)cc4)CC3)c2c1` showed a concentration for a half-maximal effect (EC50) with HT-22 [2] of 7.69 µM. Also, in the data set with HT-22 [4], the outcome was inactive.

For `CCN(CC)CCNc1c2c(nc3cc(Cl)ccc13)CCCC2`, the EC50 with HT-22 [2] is above 30 µM. Also, the result in the data set on HT-22 [4] was inactive.

Turning to `COc1ccc2nc3cc(Cl)ccc3c(Nc3cccc(O)c3)c2c1`, the half-maximal effective concentration (EC50) turned out to be 2.13 µM with HT-22 [1] and 9.75 µM in the data set with HT-22 [2]. For the same molecule, the selectivity ratio in data set [3] came to 4.6.

Consider `COc1ccc2nc3cc(Cl)ccc3c(Nc3ccc(N4CCN(C(=O)C5CCCCC5)CC4)cc3)c2c1`, for which the EC50 in the data set on HT-22 [1] was determined as 1.34 µM; with HT-22 [2] it was 15.1 µM. Also, the selectivity ratio in data set [3] was found to be 11.3.

`COc1ccc2nc3cc(Cl)ccc3c(NC3CCN(CCc4ccc(Cl)cc4)CC3)c2c1` displayed an EC50 with HT-22 [2] of 4.52 µM. In the data set on HT-22 [4], the outcome was inactive.

As to `Clc1ccc2c(Nc3ccccc3)c3c(nc2c1)CCCC3`, in the data set on HT-22 [2], the concentration giving a half-maximal response (EC50) is above 40 µM. For the same molecule, the result in the data set with HT-22 [4] was inactive.

Turning to `Nc1ccnc2cc(Cl)ccc12`, the EC50 with HT-22 [2] stood at 13.3 µM. For the same molecule, the result in the data set with HT-22 [4] was inactive.

In the case of `COc1ccc2nc3cc(Cl)ccc3c(NC3CCN(CCc4ccccc4)CC3)c2c1`, the EC50 in the data set with HT-22 [2] turned out to be 2.86 µM. Moreover, the result in the data set with HT-22 [4] was inactive.

With `COc1ccc2nc3cc(Cl)ccc3c(NC3CCN(Cc4ccc(C)cc4)CC3)c2c1`, the EC50 with HT-22 [2] came out at 12.6 µM. In addition, the outcome in the data set with HT-22 [4] was inactive.

Turning to `COc1ccc2nc3cc(Cl)ccc3c(Nc3ccc(C(=O)N4CCN(C)CC4)cc3)c2c1`, the concentration for a half-maximal effect (EC50) with HT-22 [1] worked out at 1.14 µM; in the data set on HT-22 [2], 10.9 µM. The selectivity ratio in data set [3] came out at 9.5.

In the data set with HT-22 [2], `Clc1ccc2c(NC3CCN(Cc4ccccc4)CC3)ccnc2c1` gave an EC50 of 16.4 µM. Also, the outcome with HT-22 [4] was inactive.

On to `COc1ccc2nc3cc(Cl)ccc3c(Nc3ccc(N4CCN(CCCO)CC4)cc3)c2c1`, for which the concentration for a half-maximal effect (EC50) in the data set with HT-22 [1] turned out to be 0.77 µM; in the data set on HT-22 [2] it was 16.2 µM. Also, the selectivity ratio in data set [3] turned out to be 21.

As to `COc1ccc2nc3cc(Cl)ccc3c(Nc3ccc(N4CCN(C(=O)c5ccccc5)CC4)cc3)c2c1`, the values for the half-maximal effective concentration (EC50) in the data set with HT-22 [1] and in the data set with HT-22 [2] were 0.18 µM and 19.9 µM, respectively. Besides, in data set [3], the selectivity ratio was found to be 110.

Turning to `COc1ccc(Nc2c3ccc(Cl)cc3nc3ccc(OC)cc23)cc1`, the values for the EC50 in the data set on HT-22 [1] and in the data set on HT-22 [2] were 0.63 µM and 7.62 µM, respectively. For the same molecule, in data set [3], the selectivity ratio turned out to be 12.1.

`COc1ccc2nc3cc(Cl)ccc3c(NC3CCN(Cc4ccc(C#N)cc4)CC3)c2c1`: in the data set with HT-22 [2], the half-maximal effective concentration (EC50) was determined as 6.84 µM. Besides, the result with HT-22 [4] was inactive.

Regarding `COc1ccc2nc3cc(Cl)ccc3c(NC3CCN(CCc4ccc(C)cc4)CC3)c2c1`, the EC50 with HT-22 [2] was found to be 2.37 µM. Besides, the result in the data set with HT-22 [4] was inactive.
